# pEC50, pIC50: −log10 of the molar value. “Also recorded” adds a separate entry of the source. Read-outs that look alike come from different tables or passages of the source.
# Key:
# [1] = system: PC12 cell-line expressing fragments of mutant Htt protein; experiment: oxidant (hydrogen peroxide)-mediated ATP loss and cell death in PC12 cells expressing mutant Htt fragments; format: cell-based
# Protocol: To investigate the impact of oxidative stress on HD cells we measured ATP levels in lymphoblasts derived from HD patients and normal controls. ATP levels were measured using a commercially available-luciferase substrate. The luciferase enzyme uses ATP as a cofactor to produce one photon of light per substrate molecule (e.g., luciferin). The detectable output is luminescence. There is a linear relationship between the amount of signal output and the amount of ATP present in the sample. Thus, the amount of ATP present in a sample can be directly correlated with the measured output.
# To investigate the basis for the hypersensitivity of mutant cells to oxidative stress, we employed a chemical biological approach and screened for small molecules capable of preventing an unsustainable loss of ATP in HD mutant cells. We developed an assay to measure oxidative stress-dependent ATP loss and subsequent cell-death. […] In addition, amino groups of each of CGI and K245-14 were predicted to form hydrogen bonds with Ser243 and Gly202 of PARP1.
# To confirm that inhibition of PARP-1 activity could protect cells from ATP depletion, we tested two known enzyme inhibitors in PC12 cells challenged with oxidative stress. The PC12 cell line expressed fragments of mutant Htt protein as described above. […] Maintenance of ATP levels rescued by the PARP-1 inhibitors was dependent on the severity of cellular oxidation (FIG. 2A).
# [2] = system: lymphoblasts derived from HD patients and normal controls; experiment: ATP levels in oxidant-treated normal and HD lymphoblasts; format: cell-based, human; settings: for rescue of loss of ATP: HD and wild type lymphoblasts, oxidant-treated; for pEC50: Homo sapiens, read-out: oxidant concentration for 50% loss of ATP
# Protocol: (§1) FIGS. 3A-3F. FIG. 3A is a bar graph showing the effect of the PARP-1 inhibitor ANI on ATP levels in one normal (white) and two mutant HD (black) lymphoid cell lines treated with the oxidant (Oxd.) hydrogen peroxide. Lymphoblasts treated (T) with 200 μM oxidant were supplemented with mock inhibitor (DMSO) or with 5 μM PARP-1 inhibitor ANI. FIG. 3B is a bar graph showing the effect of the novel PARP-1 inhibitor K245 on ATP levels in oxidant (Oxd.) treated normal (white) and mutant HD (black) lymphoid cell lines. Hydrogen peroxide was the oxidant. Lymphoblasts treated (T) with 200 μM oxidant were supplemented with mock inhibitor (DMSO) or with 1, 5 or 10 μM PARP-1 inhibitor K245. FIG. 3C is a bar graph showing the effects of various compounds on relative ATP levels in wildtype (white) and mutant HD (black) striatal cells treated with 400 μM hydrogen peroxide. Basal ATP levels in cells untreated with oxidant were 100%. Oxidant-treated cells were supplemented with mock (DMSO) or PARP-1 inhibitors ANI and K245 at concentrations 0.1 μM, 1 μM, and 5 μM; and 1 μM, 5 μM, and 10 μM, respectively. […] FIG. 3D is a bar graph showing the effects of PARP-1 inhibitors ANI and K245 on basal ATP levels in normal (white) and mutant HD (black) lymphoblasts. Cells were supplemented with 5 μM ANI and 10 μM K245. Basal ATP levels in cells supplemented with mock (DMSO) were 100%. Cells were not treated with oxidant. FIG. 3E is a bar graph showing the effects of PARP-1 inhibitors on ATP levels in untreated striatal cells and in striatal cells treated with the mitochondrial blocker 3-NP. Wildtype cells are indicated by white bars and mutant HD cells are indicated by black bars. Untreated wildtype and mutant HD cells were supplemented with 5 μM ANI or 10 μM K245. Basal ATP levels in cells supplemented with mock (DMSO) were 100%. Cells treated with 5 μM 3-NP were supplemented with mock (DMSO), 1 or 5 μM ANI, or 1 μM, 5 μM, or 10 μM K245. FIG. 3F is a bar graph showing PARP-1 activity levels in untreated wildtype (7Q) and mutant HD (111Q) striatal cells, and in normal (30Q) and mutant HD (63Q) lymphoblasts.
# [3] = system: striatal cells derived from Huntingtin double knock-in mutant and wildtype transgenic mice; experiment: ATP levels in oxidant-treated wildtype and mutant HD striatal cells; format: cell-based, mouse; settings: for rescue of loss of ATP: mutant and wild type striatal cells, oxidant-treated; for pEC50: read-out: oxidant concentration for 50% loss of ATP; for loss of ATP from basal ATP levels: 500 μM oxidant
# Protocol: as §1
# recombinant PARP-1 = recombinant PARP-1 (Homo sapiens, UniProt P09874); experiment: in vitro PARP-1 enzyme inhibition assay; format: biochemical
# Protocol: FIGS. 2A-2F. FIG. 2A is a bar graph showing ATP levels in PC12 cells treated with the oxidant (Oxd.), hydrogen peroxide, in the absence (white) and in the presence (gray) of the PARP-1 inhibitor (ANI). FIG. 2B is a graph showing relative ATP levels in PC12 cells treated with hydrogen peroxide in the absence (solid line) and in the presence (dashed line) of 5 μM PARP-1 inhibitor ANI. FIG. 2C is a bar graph showing ATP levels in PC12 cells either untreated (U) or treated (T) with 200 μM oxidant and supplemented with the compounds indicated at the concentrations indicated. […] The IC50 of each inhibitor, determined by in vitro assay, is also shown. […] FIG. 2E is a bar graph showing the effect of different compounds on recombinant PARP-1 activity in vitro. PARP-1 enzymatic activities were determined in the absence (white) or presence (gray) of the testing compounds. […] FIG. 2F is a graph showing the calculated IC50 of inhibitor K245.
# (See, e.g., Jagtap and Szabo, Nat Rev Drug Discov. 4:421-440, 2005; Ha and Snyder, Proc Natl Acad Sci USA. 96: 13978-13982, 1999; and Ying et al., Proc Natl Acad Sci USA 98:12227-12232, 2001). To test the effect of the compounds on PARP1 activity, an in vitro PARP-1 assay was used.
# Identification of structural analogs. […] PARP-1 activity in the presence of decreasing concentrations of three different inhibitors is shown in the graph in FIG. 6.
# α-synuclein toxicity = experiment: Parkinson's Disease alpha-synuclein toxicity assay; format: cell-based
# Source text: Alpha-synuclein toxicity assays can also be used to identify compounds that positively impact cell survival and/or function. […] As noted, Parkinson's Disease is among the indications for the present compositions.
# [4] = text and figure legend, read-out: IC50 for PARP-1 inhibition in vitro
# [5] = Table 3, in vitro enzyme inhibition, read-out: IC50
# recombinant PARP-1, sequence (P09874 whole entry): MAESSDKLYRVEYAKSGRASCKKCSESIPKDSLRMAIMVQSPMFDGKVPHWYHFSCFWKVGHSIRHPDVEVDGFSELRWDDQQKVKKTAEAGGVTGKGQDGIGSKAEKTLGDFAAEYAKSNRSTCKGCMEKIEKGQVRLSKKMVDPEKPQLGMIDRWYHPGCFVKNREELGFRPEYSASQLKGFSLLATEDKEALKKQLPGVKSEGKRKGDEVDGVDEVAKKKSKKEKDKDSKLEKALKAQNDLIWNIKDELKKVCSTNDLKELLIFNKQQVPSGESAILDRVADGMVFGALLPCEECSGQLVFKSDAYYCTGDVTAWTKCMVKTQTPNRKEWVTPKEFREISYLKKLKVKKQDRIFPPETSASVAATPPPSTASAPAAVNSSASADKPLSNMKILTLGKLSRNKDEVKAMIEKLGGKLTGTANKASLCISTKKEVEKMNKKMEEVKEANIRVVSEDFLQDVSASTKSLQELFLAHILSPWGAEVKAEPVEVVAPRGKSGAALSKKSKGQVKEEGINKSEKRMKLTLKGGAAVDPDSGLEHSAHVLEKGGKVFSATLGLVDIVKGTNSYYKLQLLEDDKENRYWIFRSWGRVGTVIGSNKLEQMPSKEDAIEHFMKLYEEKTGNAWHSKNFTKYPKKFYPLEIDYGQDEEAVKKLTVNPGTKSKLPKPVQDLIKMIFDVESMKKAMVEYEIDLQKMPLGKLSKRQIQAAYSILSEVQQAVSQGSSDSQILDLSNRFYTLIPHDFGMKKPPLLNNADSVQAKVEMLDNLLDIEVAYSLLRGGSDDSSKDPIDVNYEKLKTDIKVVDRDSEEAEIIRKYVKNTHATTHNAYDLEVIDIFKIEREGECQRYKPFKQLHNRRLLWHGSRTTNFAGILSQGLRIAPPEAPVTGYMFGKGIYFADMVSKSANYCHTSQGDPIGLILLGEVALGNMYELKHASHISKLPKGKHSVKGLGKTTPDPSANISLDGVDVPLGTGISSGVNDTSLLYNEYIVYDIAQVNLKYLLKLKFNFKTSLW
structure (smiles),measurement,setting,value
Nc1ccc2c3c(cccc13)C(=O)NC2=O [4-ANI],rescue of oxidant-mediated ATP loss and cell death,[1],protected high levels of cellular ATP
same,rescue of loss of ATP,[2],rescued loss of ATP
same,rescue of loss of ATP,[3],rescued loss of ATP
Nc1ccc2c3c(cccc13)C(=O)N2 [CG1],pIC50,recombinant PARP-1; [4],5.60
same,rescue of oxidant-mediated ATP loss and cell death,[1],rescued oxidant-mediated ATP loss and cell death
"CCN1C(=O)c2cccc3c(N)ccc1c23 [CG3, reference compound]",PARP-1 inhibition,recombinant PARP-1; result in words,did not show any PARP-1 inhibition activity; also recorded: failed to inhibit PARP-1 activity
same,rescue of oxidant-mediated ATP loss and cell death,[1],did not protect cells from oxidative stress
CCN(CC)CCNC(=O)c1ccc2c(c1)NC(=O)c1ccccc1N2 [K245-14],pIC50,recombinant PARP-1; [4],5.70
same,rescue of oxidant-mediated ATP loss and cell death,[1],rescued oxidant-mediated ATP loss and cell death
same,rescue of loss of ATP,[2],rescued loss of ATP
same,rescue of loss of ATP,[3],rescued loss of ATP
same,protective effect in α-synuclein toxicity assay,α-synuclein toxicity,small but reproducible protective effects
COc1ccc(N2CCN(C(=O)c3ccc4c(c3)NC(=O)c3ccccc3N4)CC2)cc1 [K245-39A],pIC50,recombinant PARP-1; [5],5.26
O=C1Nc2cc(C(=O)N3CCN(Cc4ccccc4)CC3)ccc2Nc2ccccc21 [K245-42],pIC50,recombinant PARP-1; [5],5.66
O=C1Nc2cc(C(=O)N3CCCC3)ccc2Nc2ccccc21 [K245-80],pIC50,recombinant PARP-1; [5],5.46
O=C1Nc2cc(C(=O)N3CCN(c4ccc(Cl)cc4)CC3)ccc2Nc2ccccc21 [K245-88],pIC50,recombinant PARP-1; [5],6.82
O=C1Nc2cc(C(=O)N3CCN(c4ccccc4F)CC3)ccc2Nc2ccccc21 [K245-89],pIC50,recombinant PARP-1; [5],6.26
COC(CNC(=O)c1ccc2c(c1)NC(=O)c1ccccc1N2)OC [K245-95],pIC50,recombinant PARP-1; [5],5.70
CCN(CCCNC(=O)c1ccc2c(c1)NC(=O)c1ccccc1N2)c1cccc(C)c1 [K245-99],pIC50,recombinant PARP-1; [5],5.40
OO [hydrogen peroxide],pEC50,[2]; mutant HD lymphoblasts,4.22
same,pEC50,[2]; normal lymphoblasts,3.92
same,pEC50,"[3]; Mus musculus, mutant HD striatal cells",3.39
same,pEC50,"[3]; Mus musculus, wildtype striatal cells",3.26
same,pEC50,[3]; mutant HD striatal cells,3.38
same,loss of ATP from basal ATP levels,[3]; mutant striatal cells,80%
same,loss of ATP from basal ATP levels,[3]; wildtype striatal cells,20%

# Reference: patent publication US20070105835A1, “Compositions and methods for modulating poly(ADP-ribose) polymerase activity” (priority 2005, published 2007)
